According to patent publication US20220227759A1, “AMORPHOUS PI3K INHIBITOR AND PHARMACEUTICAL COMPOSITION COMPRISING SAME” (BORYUNG PHARMACEUTICAL CO., LTD, priority 2019, published 2022):

Assay: Pharmacokinetic (PK) test
Format: in vivo
Conditions: beagle dog, 100 mg, PO, capsule
Experimental: A pharmacokinetic (PK) experiment was performed on the amorphous compound of Example 1.
The powder of the amorphous compound of Example 1 was filled into a capsule in an amount of 100 mg, and the capsule was orally administered to a beagle dog at 100 mg once a day, and then the biokinetics of the drug was confirmed.
Specifically, 100 mg of the amorphous compound was orally administered to the beagle dog, and blood was collected at a predetermined time, so as to measure a concentration of (S)-4-((1-(4,8-dichloro-1-oxo-2-phenyl-1,2-dihydroisoquinoline-3-yl)ethyl)amino)pyrido[2,3-d]pyrimidine-5(8H)-one. With respect to pharmacokinetic parameters, the BA Calc 2007 program was used to calculate an area under the plasma concentration-time curve from dosing time to final plasma concentration quantification time t (AUCt), an area under the plasma concentration-time curve from dosing time to infinite time (AUCi), peak plasma concentration (Cmax), time for peak plasma concentration (Tmax), and terminal elimination half-life (t1/2). As a result, a significance between substances was confirmed by Student t-test (SPSS) at a 95% confidence interval, and the results thereof are shown in table 4 below.

blood concentration: high blood concentration
SMILES: C[C@H](Nc1ncnc2[nH]ccc(=O)c12)c1c(Cl)c2cccc(Cl)c2c(=O)n1-c1ccccc1 [Example 1, (S)-4-((1-(4,8-dichloro-1-oxo-2-phenyl-1,2-dihydroisoquinoline-3-yl)ethyl)amino)pyrido[2,3-d]pyrimidin-5(8H)-one]
